{"source": "patent US20100273167A1", "about": "“METHODS FOR DETERMINING PRENATAL ALCOHOL EXPOSURE” (priority 2009, published 2010)", "key": {"[1]": {"settings": "over a period of 24 hours, parafilm sealed"}, "[2]": {"system": "Human AFSC gene expression", "settings": "100 mM ethanol, 48 hours", "experimental": "Microarray Analyses. Two microarray analyses were performed on AFSC sealed with parafilm for 48 hours with or without 100 mM of ethanol. Fragmented antisense cRNA was used for hybridizing to human U133 A arrays (Affymetrix, Inc. Santa Clara, Calif., USA) at the Core Genomic Facility of Wake Forest University School of Medicine.\nRaw CEL files were provided by the Microarray Core Facility of the Wake Forest University School of Medicine and were then analyzed with a software package AffylmGUI (Affymetrix LIMMA, Linear Models for Microarray Data, Graphical User Interfaces) (Wettenhall et al., limmaGUI: a graphical user interface for linear modeling of microarray data. Bioinformatics. 2004; 20:3705-3706; Wettenhall et al., affylmGUI: a graphical user interface for linear modeling of single channel microarray data. Bioinformatics. 2006; 22:897-899). Within AffylmGUI, gene expression values were summarized with RMA. RMA adjusts for background noise, performs a quantile normalization, transforms the data into log base 2, and then summarizes the multiple probes into one intensity (Bolstad et al., A comparison of normalization methods for high density oligonucleotide array data based on variance and bias. Bioinformatics. 2003; 19:185-193; Irizarry et al., Exploration, normalization, and summaries of high density oligonucleotide array probe level data. Biostatistics. 2003; 4:249-264; Irizarry et al., Summaries of Affymetrix GeneChip probe level data. Nucleic Acids Res. 2003; 31:e15). Quantification of relative differences in gene expression among the groups of interest was accomplished using AffylmGUI, the sister package of limmaGUI (Wettenhall et al., limmaGUI: a graphical user interface for linear modeling of microarray data. Bioinformatics. 2004; 20:3705-3706; Wettenhall et al., affylmGUI: a graphical user interface for linear modeling of single channel microarray data. Bioinformatics. 2006; 22:897-899). AffylmGUI reads the raw Affymetrix CEL files directly, summarizes the gene expression values using RMA, and then uses LIMMA to identify statistically significant differences in gene expression (Smyth, Linear models and empirical bayes methods for assessing differential expression in microarray experiments. Stat Appl Genet Mol Biol. 2004; 3:Article3). LIMMA fits a linear model for every gene (like ANOVA or multiple regression analysis), and adjusts P values for multiple testings (Smyth, Linear models and empirical bayes methods for assessing differential expression in microarray experiments. Stat Appl Genet Mol Biol. 2004; 3:Article3). Differentially expressed genes were identified with a fold change >1.8.\nTo uncover enriched processes, data sets were analyzed by DAVID (Database for Annotation, Visualization and Integrated Discovery), a web-based tool that provides statistical methods for identifying over-represented biological themes and pathways within diverse and disparate gene lists (Dennis et al., DAVID: Database for Annotation, Visualization, and Integrated Discovery. Genome Biol. 2003; 4:3). DAVID also identifies over-represented biological themes in terms of their Gene Ontology (GO) terms and provides tools to visualize the distribution of genes on BioCarta and KFGG pathway maps. (Ashburner et al., Gene ontology: tool for the unification of biology. The Gene Ontology Consortium. Nat Genet. 2000; 25:25-29). GO provides consistent descriptions of genes in terms of biological processes and molecular function. Gene-enrichment analysis computes a modified Fisher exact p-value by comparing the ontological themes identified in our data set to total possible ontological processes present on the U133A chip."}, "[3]": {"system": "c-kit", "settings": "in vitro alcohol exposure of AFSC"}, "[4]": {"system": "Human AFSC", "settings": "48 hours", "experimental": "Human AFSC were seeded at 3,000 cells/cm^2 and maintained in culture as described previously (De Coppi et al., Isolation of amniotic stem cell lines with potential for therapy. Nat Biotechnol. 2007; 25:100-106). AFSC were grown in α-MEM medium (Gibco, Invitrogen) containing 15% ES-FBS, 1% glutamine, and 1% penicillin/streptomycin (Gibco), supplemented with 18% Chang B and 2% Chang C (Irvine Scientific) at 37° C. with 5% CO2 atmosphere. For dose-dependent studies on cell growth and viability, AFSC were treated with 25 mM, 50 mM, 75 mM, and 100 mM ethanol (Sigma-Aldrich, St. Louis, Mo.), and sealed with parafilm with media being replaced every 24 hours.\nForty-eight hours after seeding, ethanol was added to the media and parafilm sealed to prevent evaporation. Control groups were not treated with ethanol but otherwise treated identically. Proliferation rate was determined by measuring the number of AFSC after 48 hours of various ethanol concentrations. Cell number was measured using a Coulter counter. Cell viability was determined by propidium iodine (PI) exclusion. AFSC were dissociated by 0.05% trypsin/EDTA (Gibco), centrifuged at 1,500 RPM for 5 minutes, and resuspended in 1 ml of PBS in 15 ml polypropylene tubes. 50 μl of PI, […], was added to each tube and incubated for 1 hour at room temperature. Cells were centrifuged, supernatant removed, and washed twice with a wash buffer. Samples were analyzed by flow cytometry using the FL-1 channel."}, "[5]": {"system": "Human AFSC", "experimental": "(§1) Human AFSC were induced to differentiate into osteogenic cell types as described previously (De Coppi et al., Isolation of amniotic stem cell lines with potential for therapy. Nat Biotechnol. 2007; 25:100-106). Briefly, AFSC was cultured in DMEM low glucose with 10% FBS supplemented with 100 nM dexamethasone (Sigma-Aldrich), 10 mM beta-glycerophosphate (Sigma-Aldrich) and 0.05 mM ascorbic acid-2-phosphate (Wako Chemicals, Irving, Tex.). Cells were grown to confluency and then treated with ethanol for the first 48 hours of osteogenic differentiation to control for ethanol's antiproliferative effect. Cell number was determined after 24 and 48 hours of ethanol and bone differentiation."}, "[6]": {"system": "osteopontin", "settings": "100 mM ethanol", "experimental": "Total RNA was isolated from AFSC using PerfectPure RNA Cultured Cell Kit (5 Prime) in accordance with the manufacturer's protocol. Following the procedure, DNA digestion was included as recommended by the supplier to eliminate the contamination of genomic DNA. Quality of total RNA was assessed by the spectrophotometric ratio of 260/280. For the reverse-transcriptase reaction, SuperscriptII reverse transcription reagents (Invitrogen) were used. Briefly, 1 μg of RNA was converted to cDNA. PCR amplification was performed with TaqMan Universal Master Mix (Applied Biosystems). Reactions were performed in duplicate, containing 1 μl of cDNA, 1.25 μl probe, 12 μl Master Mix, 10 μl DI H20 and were analyzed in a 96-well optical reaction plate (Applied Biosystems). Reactions were amplified and quantified using an ABI 7700 sequence detectors and manufacturer's software (Applied Biosystems). On demand fluorescent probes for the following genes: β-actin and osteopontin. The threshold cycle (Ct) indicates the fractional cycle number at which the amount of amplified target reaches a defined threshold. ΔCt was obtained by subtracting the Ct values of endogenous controls (β-actin) from the Ct values of the target genes."}, "[7]": {"system": "alkaline phosphatase activity in AFSC", "settings": "100 mM ethanol at day 8 (midpoint) of osteogenic differentiation for 48 hours", "experimental": "as §1\nAlkaline phosphatase activity was measured using p-nitrophenyl phosphate liquid substrate system (Sigma). Cells grown in 24-well plates were rinsed in PBS and incubated with 0.15% Triton X-100 for 30 mins. Two hundred uL of p-nitrophenyl phosphate solution was added to the Triton-X 100 solution. Cells were incubated in the dark for 1 hour and read spectrophotometrically at 405 nm."}, "[8]": {"system": "Human AFSC", "settings": "25 mM to 100 mM ethanol", "method": "Forty-eight hours after seeding, ethanol was added to the media and parafilm sealed to prevent evaporation. Control groups were not treated with ethanol but otherwise treated identically. […] Cell number was measured using a Coulter counter. Cell viability was determined by propidium iodine (PI) exclusion. AFSC were dissociated by 0.05% trypsin/EDTA (Gibco), centrifuged at 1,500 RPM for 5 minutes, and resuspended in 1 ml of PBS in 15 ml polypropylene tubes. 50 μl of PI, a nucleotide analogue, was added to each tube and incubated for 1 hour at room temperature. Cells were centrifuged, supernatant removed, and washed twice with a wash buffer. Samples were analyzed by flow cytometry using the FL-1 channel."}}, "note": "Values joined by “and” are separate entries in the source; they are usually repeats but may differ in a detail not shown here. Identical values can stand only once. Like-named read-outs stand apart in the source and are kept apart here.", "data": [{"smiles": "CCO", "note": "[ethanol]", "values": [{"measurement": "ethanol concentration present in the culture media", "setting": "[1]", "result": "did not change"}, {"measurement": "Basic fibroblast growth factor/FGF2 expression fold change", "setting": "[2]; growth media", "result": "−2.0", "unit": "fold change"}, {"measurement": "number of genes down-regulated in response to ethanol", "setting": "[2]; growth media", "result": 16, "unit": "genes"}, {"measurement": "number of genes up-regulated in response to ethanol", "setting": "[2]; growth media", "result": 65, "unit": "genes"}, {"measurement": "Count of down-regulated genes: anatomical structure development", "setting": "[2]; gene ontology category", "result": 6}, {"measurement": "Count of down-regulated genes: circulatory system process", "setting": "[2]; gene ontology category", "result": 3}, {"measurement": "Count of down-regulated genes: embryonic development", "setting": "[2]; gene ontology category", "result": 3}, {"measurement": "Count of down-regulated genes: glucose transport", "setting": "[2]; gene ontology category", "result": 2}, {"measurement": "Count of down-regulated genes: multi-organism process", "setting": "[2]; gene ontology category", "result": 3}, {"measurement": "Count of down-regulated genes: negative regulation of cellular process", "setting": "[2]; gene ontology category", "result": 6}, {"measurement": "Count of down-regulated genes: regulation of biological quality", "setting": "[2]; gene ontology category", "result": 4}, {"measurement": "Count of up-regulated genes: IGF receptor signaling pathway", "setting": "[2]; gene ontology category", "result": 2}, {"measurement": "Count of up-regulated genes: biomineral & ossification", "setting": "[2]; gene ontology category", "result": 5}, {"measurement": "Count of up-regulated genes: blood vessel morphogenesis", "setting": "[2]; gene ontology category", "result": 4}, {"measurement": "Count of up-regulated genes: developmental process", "setting": "[2]; gene ontology category", "result": 17}, {"measurement": "Count of up-regulated genes: organ development", "setting": "[2]; gene ontology category", "result": 12}, {"measurement": "Count of up-regulated genes: organ morphogenesis", "setting": "[2]; gene ontology category", "result": 7}, {"measurement": "Count of up-regulated genes: reproductive developmental process", "setting": "[2]; gene ontology category", "result": 4}, {"measurement": "Count of up-regulated genes: skeletal development", "setting": "[2]; gene ontology category", "result": 5}, {"measurement": "Count of up-regulated genes: system development", "setting": "[2]; gene ontology category", "result": 13}, {"measurement": "Count of up-regulated genes: tyrosine kinase signaling pathway", "setting": "[2]; gene ontology category", "result": 4}, {"measurement": "effect on c-kit expression", "setting": "[3]", "result": "does not appear to affect c-kit expression"}, {"measurement": "reduction in proliferation rate", "setting": "[4]; 25 mM ethanol, relative to cells without ethanol", "result": 22, "unit": "%"}, {"measurement": "reduction in the rate of proliferation", "setting": "[4]; 100 mM ethanol, relative to cells without ethanol", "result": 33, "unit": "%"}, {"measurement": "effect on rate of proliferation", "setting": "[4]; 25-100 mM ethanol", "result": "dose-dependent reduction in the rate of proliferation"}, {"measurement": "calcium deposition", "setting": "[5]; 100 mM ethanol during first 48 hours of osteogenic differentiation, day 23, non-exposed AFSC 77.40±26.85", "result": "155.06 ± 75.85 µg/mL and 155.1 ± 75.8 µg/mL"}, {"measurement": "effect on cell number", "setting": "[5]; cells grown to confluency, 24 and 48 hours of ethanol and bone differentiation (data not shown)", "result": "no effect on cell number"}, {"measurement": "increase in mRNA expression of osteopontin", "setting": "[6]; 24 hours, growth media, vs control AFSC", "result": 2.2, "unit": "fold"}, {"measurement": "increase in mRNA expression of osteopontin", "setting": "[6]; 24 hours, osteogenic media", "result": 2, "unit": "fold"}, {"measurement": "increase in mRNA expression of osteopontin", "setting": "[6]; 48 hours, growth media, vs control AFSC", "result": 2.8, "unit": "fold change"}, {"measurement": "effect on alkaline phosphatase activity", "setting": "[7]", "result": "no statistically significant effect on alkaline phosphatase activity"}, {"measurement": "effect on cell viability", "setting": "[8]", "result": "did not have a significant effect on cell viability"}]}]}
